Values of other authors as cited in patent US6472583B1, “Plasmid-based mutation detection system in transgenic fish” (The University of Georgia Research Foundation, Inc., priority 1998, dated 2002).
Like-named read-outs stand apart in the source and are kept apart here.

What was measured:
λLIZ transgenic fish = settings: previous studies using λLIZ transgenic fish
[1] = species not stated

## CCN(N=O)C(N)=O [ENU, N-ethyl-N-nitrosourea]
λLIZ transgenic fish; dose about 0.5 mM (60 ppm)
  mutation frequency induction: two-fold
λLIZ transgenic fish; dose about 120 ppm, medaka
  mutation frequency induction: four-fold
[1]
  LD50: ~350 mg/kg
